# Assay results published in paper PMC12766724, “Synthesis, Anthelmintic Activity, and Mechanism of Action of 5‑Aryl‑1H‑indoles” (Journal of Agricultural and Food Chemistry, 2025).
# Like-named read-outs stand apart in the source and are kept apart here.
# Assays:
# C. elegans N2 wild-type = test: Chitinase assay (reproductive capacity); assay type: in vivo, Caenorhabditis elegans
# Protocol: (§1) The effect of compounds on C. elegans was evaluated using the Chitinase assay as we described previously.
# After exposing L1 larvae to the compounds for 4 days, we observed the populations under a microscope and measured the Chitinase activity. The larvae produce the enzyme while hatching, and its activity is indicative of the reproductive capacity of the worms. Populations that fail to reproduce due to acute or reproductive toxicity or developmental abnormalities are detected.
# [1] = tested on: Arabidopsis thaliana Col-0; test: Germination rate and phytotoxicity; assay type: in vivo; settings: for average fraction of germinated seeds: 5 DPS; for main root length / plant weight: 10 DPS
# Protocol: Wild-type A. thaliana (Col-0 ecotype) seeds were sterilized with 70% EtOH with 0.1% Tween-20 solution (2 × 1 mL) for 10 min, rinsed with 96% EtOH (1 × 1 mL) for 10 min, and kept in the fridge (4 °C in the dark). Seeds were sown on a sterile 1/2 MS medium supplemented with 0.3% DMSO as a mock and test compounds at 5, 10, 50, and 100 μM concentrations in 0.3% DMSO. Plates were kept in long-day light conditions (22 °C/20 °C, 16 h light/8 h dark, 100 μmol m^–2 s^–1). After 5 days, the germination rate was evaluated. After an additional 5 days, primary root growth was measured with ImageJ software (https://imagej.nih.gov/ij/), and seedlings were weighted.
# [2] = tested on: C. elegans ZZ15 lev-8(x15) X.; test: Chitinase assay (reproductive capacity); assay type: in vivo; settings: Caenorhabditis elegans; levamisole-resistant strain
# Protocol: (§2) C. elegans strains used in this study were N2 (wild-type), levamisole-resistant strains ZZ15 (lev-8(x15) X) and […] (lev-1(e211) IV), ivermectin-resistant strain DA1316 (avr-14(ad1305) I; avr-15(vu227) glc-1(pk54) V), mebendazole-resistant strain […] (ben-1(e1880) III), and three strains with mutations in succinate dehydrogenase, RP2699, RP2700, and RP2702. The worms were cultivated on Nematode Growth Medium agar plates seeded with Escherichia coli OP50 in 20 °C according to the standard cultivation protocols. Strains RP2699, RP2700, and RP2702 were generated by Prof. Peter Roy’s group. All other strains and bacteria were purchased from the Caenorhabditis Genetics Center (CGC, Minneapolis, MN).
# as §1
# (§3) Lastly, strain DA1316 has mutations in three genes encoding subunits of the glutamate-gated chloride channel and is highly resistant to avermectins.
# [3] = tested on: C. elegans DA1316 avr-14(ad1305) I; avr-15(vu227) glc-1(pk54) V.; test: Chitinase assay (reproductive capacity); assay type: in vivo; settings: Caenorhabditis elegans; ivermectin-resistant strain
# Protocol: as §2, §1, §3
# [4] = tested on: C. elegans CB211 lev-1(e211) IV.; test: Chitinase assay (reproductive capacity); assay type: in vivo; settings: Caenorhabditis elegans; levamisole-resistant strain
# Protocol: as §2, §1, §3
# [5] = tested on: C. elegans CB3474 ben-1(e1880) III.; test: Chitinase assay (reproductive capacity); assay type: in vivo; settings: Caenorhabditis elegans; mebendazole-resistant strain
# Protocol: as §2, §1, §3
# [6] = tested on: age unsynchronized Ditylenchus destructor; test: Motility on WMicrotracker ONE; assay type: in vivo
# Protocol: Populations of D. destructor, kindly provided by Central Institute for Supervising and Testing in Agriculture, the Ministry of Agriculture of the Czech Republic, were maintained according to the protocol previously described here.
# (§4) The effect of compounds on motility of H. contortus, D. destructor, and H. schachtii was evaluated using the WMicrotracker ONE platform according to previously published protocols. ,
# (§5) The instrument evaluates the activity of small animals by counting how many times infrared light microbeams passing through the wells of a microtiter plate are interrupted. In age-unsynchronized populations of D. destructor, we observed reduced motility of worm populations treated with the halogenated derivatives i-19, i-20, and i-21 (Figures A, S2.1A, S2.2A and Table S2.1). […] The decreases in mean activity counts after 72 h of treatment at 100 μM were 85% and 97%, respectively.
# Skin fibroblasts (BJ) = test: Resazurin assay, 3-day treatment; assay type: cell-based, human; settings: BJ
# Protocol: Skin fibroblasts (BJ) were obtained from the American Type Culture Collection (ATCC, Manassas, VA), while human keratinocytes (HaCaT) were sourced from the German Cancer Research Center in Heidelberg, Germany. Cells were cultured in a standard DMEM medium from Sigma-Aldrich, supplemented with 10% fetal bovine serum, 2 mM glutamine, 100 U/mL penicillin, and 100 μg/mL streptomycin. Cultures were maintained under standard conditions (37 °C, 5% CO2, humidified atmosphere) and subcultured two to three times per week. We assessed the effect of 3-day compound treatments on cell viability using a resazurin reduction assay measuring mitochondrial activity. Approximately 5,000 cells in 80 μL of culture medium were seeded into the wells of a 96-well plate. Twenty-four hours later, 20 μL of 5-fold concentrated test compound solutions was added and tested across three concentrations prepared through 2-fold serial dilutions. The highest final concentration was 40 μM. After 72 h, we added an 11-fold concentrated resazurin solution to the wells, achieving a final concentration of 0.0125 μM. Fluorescence (ex = 570 nm, em = 610 nm) was measured after 3 h of incubation. […]
# [7] = tested on: Heterodera schachtii second-stage juveniles (J2); test: Motility on WMicrotracker ONE; assay type: in vivo
# Protocol: H. schachtii was maintained on mustard (Sinapsis alba cv. Albatros) roots grown in vitro on modified KNOP medium according to the previously published protocols. ,
# as §4, §5
# [8] = tested on: human keratinocytes (HaCaT); test: Resazurin assay, 3-day treatment; assay type: cell-based
# Protocol: Skin fibroblasts (BJ) were obtained from the American Type Culture Collection (ATCC, Manassas, VA), while human keratinocytes (HaCaT) were sourced from the German Cancer Research Center in Heidelberg, Germany. Cells were cultured in a standard DMEM medium from Sigma-Aldrich, supplemented with 10% fetal bovine serum, 2 mM glutamine, 100 U/mL penicillin, and 100 μg/mL streptomycin. Cultures were maintained under standard conditions (37 °C, 5% CO2, humidified atmosphere) and subcultured two to three times per week. We assessed the effect of 3-day compound treatments on cell viability using a resazurin reduction assay measuring mitochondrial activity. Approximately 5,000 cells in 80 μL of culture medium were seeded into the wells of a 96-well plate. Twenty-four hours later, 20 μL of 5-fold concentrated test compound solutions was added and tested across three concentrations prepared through 2-fold serial dilutions. The highest final concentration was 40 μM. After 72 h, we added an 11-fold concentrated resazurin solution to the wells, achieving a final concentration of 0.0125 μM. Fluorescence (ex = 570 nm, em = 610 nm) was measured after 3 h of incubation.
# The disubstituted derivatives i-25 and i-27 were the most toxic in the set, causing around a 50% decrease in viability of HaCaT cells at 40 μM.
# [9] = 10 µM group, initial (prior to the treatment)
# [10] = 50 µM group, initial (prior to the treatment)
# [11] = 100 µM group, initial (prior to the treatment)
structure (smiles),measurement,setting,value
Oc1cc(-c2ccc3[nH]ccc3c2)ccc1Cl [i-24],IC50,C. elegans N2 wild-type; Caenorhabditis elegans,25 to 50 µM
CC(C)Oc1ccc(-c2ccc3[nH]ccc3c2)cc1 [i-16],IC50,C. elegans N2 wild-type; Caenorhabditis elegans,15.2 ± 0.89 µM
CC(C)Oc1cccc(-c2ccc3[nH]ccc3c2)c1 [i-15],average fraction of germinated seeds,[1]; 5 µM,0.98
same,main root length,[1]; 5 µM,36.67 mm
same,plant weight,[1]; 5 µM,35.21 mg
same,average fraction of germinated seeds,[1]; 10 µM,0.93
same,main root length,[1]; 10 µM,36.13 mm
same,plant weight,[1]; 10 µM,31.55 mg
same,average fraction of germinated seeds,[1]; 50 µM,0.95
same,main root length,[1]; 50 µM,35.01 mm
same,plant weight,[1]; 50 µM,29.94 mg
same,IC50,C. elegans N2 wild-type,7.93 ± 0.66 µM
same,IC50,C. elegans N2 wild-type; Caenorhabditis elegans,< 10 µM
same,IC50,[2],8.55 ± 1.04 µM
same,IC50,[3],9.1 ± 2.21 µM
same,IC50,[4],8.86 ± 0.9 µM
same,IC50,[5],10.2 ± 0.51 µM
same,average activity counts,[6]; [9],224
same,average activity counts,"[6]; 10 µM, 48 h",201
same,average activity counts,"[6]; 10 µM, 72 h",224
same,average activity counts,[6]; [10],226
same,average activity counts,"[6]; 50 µM, 48 h",198
same,average activity counts,"[6]; 50 µM, 72 h",218
same,average activity counts,[6]; [11],217
same,average activity counts,"[6]; 100 µM, 48 h",199
same,average activity counts,"[6]; 100 µM, 72 h",206
same,Average viability (signal intensity relative to control),Skin fibroblasts (BJ); 10 µM,1 ± 0.03
same,Average viability (signal intensity relative to control),Skin fibroblasts (BJ); 20 µM,1.03 ± 0.04
same,Average viability (signal intensity relative to control),Skin fibroblasts (BJ); 40 µM,0.98 ± 0.05
same,average activity counts,[7]; [9],169
same,average activity counts,"[7]; 10 µM, 48 h",191
same,average activity counts,"[7]; 10 µM, 72 h",164
same,average activity counts,[7]; [10],188
same,average activity counts,"[7]; 50 µM, 48 h",193
same,average activity counts,"[7]; 50 µM, 72 h",144
same,average activity counts,[7]; [11],195
same,average activity counts,"[7]; 100 µM, 48 h",212
same,average activity counts,"[7]; 100 µM, 72 h",175
same,Average viability (signal intensity relative to control),[8]; 10 µM,1.01 ± 0.04
same,Average viability (signal intensity relative to control),[8]; 20 µM,1.04 ± 0.05
same,Average viability (signal intensity relative to control),[8]; 40 µM,1.01 ± 0.05
Oc1cccc(-c2ccc3[nH]ccc3c2)c1 [i-3],Average viability (signal intensity relative to control),Skin fibroblasts (BJ); 10 µM,1 ± 0.01
same,Average viability (signal intensity relative to control),Skin fibroblasts (BJ); 20 µM,0.97 ± 0
same,Average viability (signal intensity relative to control),Skin fibroblasts (BJ); 40 µM,0.89 ± 0
same,Average viability (signal intensity relative to control),[8]; 10 µM,1.02 ± 0.06
same,Average viability (signal intensity relative to control),[8]; 20 µM,1 ± 0.06
same,Average viability (signal intensity relative to control),[8]; 40 µM,0.93 ± 0.06
